Among the data in patent US9115137B2, “2,3,4,5-tetrahydro-1H-pyrido[4,3-B]indole compounds and methods of use thereof” (priority 2008, dated 2015) are inhibition values, retold here.

For the first experiment, the target named is T1, human recombinant serotonin (5-Hydroxytryptamine) 5-HT2A receptor (Homo sapiens, UniProt P28223).
T1 construct: expressed in transfected cells; host or cells: CHO-K1 cells
T1 sequence (P28223 whole entry): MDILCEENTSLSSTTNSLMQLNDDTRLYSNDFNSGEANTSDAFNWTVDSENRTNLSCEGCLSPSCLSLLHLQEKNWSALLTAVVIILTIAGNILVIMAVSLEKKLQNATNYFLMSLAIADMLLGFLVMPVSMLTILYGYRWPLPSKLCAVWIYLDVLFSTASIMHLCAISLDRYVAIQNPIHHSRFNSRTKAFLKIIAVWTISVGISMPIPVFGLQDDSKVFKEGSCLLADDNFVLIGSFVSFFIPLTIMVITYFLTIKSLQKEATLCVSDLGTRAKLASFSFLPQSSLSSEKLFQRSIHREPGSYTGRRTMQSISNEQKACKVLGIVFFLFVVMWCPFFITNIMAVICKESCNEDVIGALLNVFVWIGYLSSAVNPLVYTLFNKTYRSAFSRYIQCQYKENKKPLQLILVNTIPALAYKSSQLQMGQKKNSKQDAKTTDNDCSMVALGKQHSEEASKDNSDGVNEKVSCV
Nature of the experiment: Serotonin 5-HT2A radioligand binding ([3H]Ketanserin). Particulars: compound at 1 μM; CHO-K1 cells; read-out: Serotonin (1 μM) 5-HT2A, percent inhibition of specific binding. The method, then:
To evaluate in radioligand binding assays the activity of compounds of the invention, human recombinant serotonin (5-Hydroxytryptamine) 5-HT2A receptor expressed in Chinese hamster ovary (CHO-K1) cells (Bonhaus, D. W. et al. Br. J. Pharmacol. 115:622, 1995; Saucier, C. and Albert, P. R., J. Neurochem. 68:1998, 1997) in a 50 mM Tris-HCl buffer, pH 7.4, was used. Compounds of the invention were incubated with 0.5 nM [^3H]Ketanserin for 60 minutes at 25° C. Non-specific binding was estimated in the presence of 1 μM Mianserin. Receptor proteins were filtered and washed, the filters were then counted to determine [^3H] Ketanserin specifically bound. Compounds were screened at 1 μM or lower, using 1% DMSO as vehicle. Biochemical assay results are presented as the percent inhibition of specific binding in Table 7.
Consider `CN1CCc2c(c3cc(Cl)ccc3n2CC(=O)OCC2CCCCC2)C1` [Compound 14, cyclohexylmethyl 2-(8-chloro-1,2,3,4-tetrahydro-2-methylpyrido[4,3-b]indol-5-yl)acetate], for which the inhibition (as a rule, the drop in the measured response relative to a control, in per cent) at 1 µM turned out to be 103%.

Turning to `CN1CCc2c(c3cc(Cl)ccc3n2CCC#N)C1` [CD94, 3-(8-chloro-2-methyl-3,4-dihydro-1H-pyrido[4,3-b]indol-5(2H)-yl)propanenitrile], the inhibition at 1 µM was found to be 60%.

`Cc1ccc2c(c1)c1c(n2CC(=O)NC(C)(C)C)CCN(C)C1` [Compound 24, N-tert-butyl-2-(1,2,3,4-tetrahydro-2,8-dimethylpyrido[4,3-b]indol-5-yl)acetamide]: the inhibition at 1 µM came out at 9%.

With `CN1CCc2c(c3cc(Cl)ccc3n2CCO)C1` [CD89, 2-(8-chloro-2-methyl-3,4-dihydro-1H-pyrido[4,3-b]indol-5(2H)-yl)ethanol], the inhibition at 1 µM turned out to be 70%.

On to `Cc1ccc2c(c1)c1c(n2CCC(N)=O)CCN(C)C1` [Compound 46, 3-(1,2,3,4-tetrahydro-2,8-dimethylpyrido[4,3-b]indol-5-yl)propanamide], for which the inhibition at 1 µM was 33%.

For `CN1CCc2c(c3cc(Cl)ccc3n2CCC(=O)OCc2ccccc2)C1` [Compound 19, benzyl 3-(8-chloro-1,2,3,4-tetrahydro-2-methylpyrido[4,3-b]indol-5-yl)propanoate], the inhibition at 1 µM stood at 95%.

Turning to `Cc1ccc2c(c1)c1c(n2CCC(=O)Nc2ccccc2)CCN(C)C1` [Compound 29], the inhibition at 1 µM came out at 96%.

For the compound `Cc1ccc2c(c1)c1c(n2CCC(=O)NC(C)(C)C)CCN(C)C1` [Compound 28], the inhibition at 1 µM was 17%.

The same experiment, now with this note: read-out: Serotonin (1 μM) 5-HT2A, percent inhibition of specific binding.
For `CN1CCc2c(c3cc(Cl)ccc3n2CCBr)C1` [CD88, 5-(2-bromoethyl)-8-chloro-2-methyl-2,3,4,5-tetrahydro-1H-pyrido[4,3-b]indole], the inhibition at 1 µM worked out at 98%.

In another experiment the target is T2, human recombinant dopamine D2L receptor (Homo sapiens, UniProt P14416).
T2 construct: expressed in transfected cells; host or cells: CHO cells
T2 sequence (P14416 whole entry): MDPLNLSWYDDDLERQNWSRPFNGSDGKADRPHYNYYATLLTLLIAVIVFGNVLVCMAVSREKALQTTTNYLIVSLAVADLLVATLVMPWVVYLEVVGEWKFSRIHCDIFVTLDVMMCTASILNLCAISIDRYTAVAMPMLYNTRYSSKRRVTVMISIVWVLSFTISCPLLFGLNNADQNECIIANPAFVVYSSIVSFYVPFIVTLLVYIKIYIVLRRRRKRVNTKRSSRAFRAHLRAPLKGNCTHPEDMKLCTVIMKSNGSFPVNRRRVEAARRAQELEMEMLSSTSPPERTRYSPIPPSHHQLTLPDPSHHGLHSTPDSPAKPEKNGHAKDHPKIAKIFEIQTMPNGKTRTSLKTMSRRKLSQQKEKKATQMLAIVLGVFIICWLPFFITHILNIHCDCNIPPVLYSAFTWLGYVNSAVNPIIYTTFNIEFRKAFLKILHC
As to the kind of experiment: Dopamine D2L radioligand binding ([3H]Spiperone). Particulars: compound at 1 μM; CHO cells; read-out: Dopamine (1 μM) D2L, percent inhibition of specific binding. The method, then:
To evaluate in radioligand binding assays the activity of compounds of the invention, human recombinant dopamine D2L receptor expressed in Chinese hamster ovary (CHO) cells (Grandy, D. K. et al. Proc. Natl. Acad. Sci. USA. 86:9762, 1989; Hayes, G. et al., Mol. Endocrinol. 6:920, 1992) in a modified Tris-HCl buffer (50 mM Tris-HCl, pH 7.4, 1.4 mM Ascorbic Acid, 0.001% BSA, 150 mM NaCl) was used. Compounds of the invention were incubated with 0.16 nM [^3H]Spiperone for 120 minutes at 25° C. Non-specific binding was estimated in the presence of 10 μM Haloperidol. Receptor proteins were filtered and washed, the filters were then counted to determine [^3H]Spiperone specifically bound. Compounds were screened at 1 μM or lower, using 1% DMSO as vehicle. Biochemical assay results are presented as the percent inhibition of specific binding in Table 6.
`CN1CCc2c(c3cc(Cl)ccc3n2CC(=O)OCC2CCCCC2)C1` [Compound 14, cyclohexylmethyl 2-(8-chloro-1,2,3,4-tetrahydro-2-methylpyrido[4,3-b]indol-5-yl)acetate]: the inhibition at 1 µM was found to be 31%.

Consider `CN1CCc2c(c3cc(Cl)ccc3n2CCC#N)C1` [CD94, 3-(8-chloro-2-methyl-3,4-dihydro-1H-pyrido[4,3-b]indol-5(2H)-yl)propanenitrile], for which the inhibition at 1 µM is 1%.

For `Cc1ccc2c(c1)c1c(n2CC(=O)NC(C)(C)C)CCN(C)C1` [Compound 24, N-tert-butyl-2-(1,2,3,4-tetrahydro-2,8-dimethylpyrido[4,3-b]indol-5-yl)acetamide], the inhibition at 1 µM was found to be 3%.

Consider `CN1CCc2c(c3cc(Cl)ccc3n2CCO)C1` [CD89, 2-(8-chloro-2-methyl-3,4-dihydro-1H-pyrido[4,3-b]indol-5(2H)-yl)ethanol], for which the inhibition at 1 µM amounted to 0%.

As for `Cc1ccc2c(c1)c1c(n2CCC(N)=O)CCN(C)C1` [Compound 46, 3-(1,2,3,4-tetrahydro-2,8-dimethylpyrido[4,3-b]indol-5-yl)propanamide], the inhibition at 1 µM was found to be 4%.

Turning to `CN1CCc2c(c3cc(Cl)ccc3n2CCC(=O)OCc2ccccc2)C1` [Compound 19, benzyl 3-(8-chloro-1,2,3,4-tetrahydro-2-methylpyrido[4,3-b]indol-5-yl)propanoate], the inhibition at 1 µM came out at 31%.

Take `Cc1ccc2c(c1)c1c(n2CCC(=O)Nc2ccccc2)CCN(C)C1` [Compound 29]: the inhibition at 1 µM is 2%.

Turning to `Cc1ccc2c(c1)c1c(n2CCC(=O)NC(C)(C)C)CCN(C)C1` [Compound 28], the inhibition at 1 µM was -1%.

The same experiment, now with this note: read-out: Dopamine (1 μM) D2L, percent inhibition of specific binding.
For `CN1CCc2c(c3cc(Cl)ccc3n2CCBr)C1` [CD88, 5-(2-bromoethyl)-8-chloro-2-methyl-2,3,4,5-tetrahydro-1H-pyrido[4,3-b]indole], the inhibition at 1 µM came to 27%.
